Measurements taken from patent US20160287712A1, “FATTY ACID NIACIN CONJUGATES” (priority 2013, published 2016).
Like-named read-outs stand apart in the source and are kept apart here.

Assays:
[1] = Compound hydrolysis and tissue distribution: test compound and metabolites in liver after oral dosing for 3.5 days; type: in vivo, Male Sprague-Dawley rats; details: for concentration at 4 h / Amount of Analyte: Niacin-linker Metabolite / Amount of Analyte: Nicotinuric Acid / Amount of Analyte: Linker-Fatty Acid Metabolite: male, Sprague-Dawley; for concentration at 4 h: liver homogenate, rat liver, 100 mg/kg oral gavage every 12 hours, 7 doses, 4 hours after last dose, read-out: Amount of Analyte: Intact Test Compound; for Amount of Analyte: Niacin-linker Metabolite / Amount of Analyte: Nicotinuric Acid / Amount of Analyte: Linker-Fatty Acid Metabolite: 4 h
Protocol: The amount of test compound and its metabolites in the liver provides information on distribution of such compounds within the rat, as well as information on stability of the test compound, such as resistance of the test compound to hydrolytic degradation. […] A test compound was administered to a single group of Male Sprague-Dawley rats. Each group contained 6 animals. […] Two additional animals were administered vehicle alone as controls. Animals were dosed every 12 hours for 3.5 days (7 doses total). Rats were fasted overnight after the PM dose on day 3 of study. On day 4 the rats were euthanized 4 hours after the last dose. Vehicle treated rats were also fasted prior to collection of tissue samples on day 4. At 4 hours after last dose, the livers were excised, rinsed and weight of each tissue recorded. Livers were snap frozen in liquid nitrogen and stored in 50 mL polypropylene conical centrifuge tubes at −80° C. Liver tissue was homogenized in PBS at a volume of 2 mL per gram of tissue. The amount of test compound and various metabolites of the test compound present in the liver homogenates were analyzed by LC/MS/MS as done in the previous example. […] In order to quantitate each of these compounds in the homogenates, standard curves in blank liver homogenates were generated using the appropriate internal standard.

[2] = Pharmacokinetics after oral administration to rats with jugular vein and portal vein catheters; type: in vivo, Male Sprague-Dawley rats; details: rat
Protocol: Pharmacokinetic studies were conducted in male Sprague-Dawley rats, with an approximate weight of 250-300 g at dose initiation. All animals were instrumented with a jugular vein catheter (JVC) and a portal vein catheter (PVC) to facilitate blood collections. Jugular and Portal vein catheterizations were conducted at Charles River Laboratories under protocols approved by the Institutional Animal Care and Use Committee (IACUC) of Charles River Lab (Approved PO 4122010).
Animals were anaesthetized with ketamine and xylazine administered intraperitoneally and provided buprenorphine subcutaneously. The skin overlying the scapula and over the right jugular vein were shaved and skin aseptically prepared. A 1.1.5 cm cranial-caudal incision, followed by blunt dissection was performed to expose the jugular vein, which was then catheterized using either a PU or blended catheter. After fixation of the catheter, it was flushed with sterile saline to verify patency. The distal end of the catheter was then tunneled subcutaneously to the dorsal scapular region where it was exteriorized. Catheter patency was verified again. The catheter was then locked with 50% heparinized dextrose solution. The exteriorized end of the catheter was sealed with a stainless steel plug. The skin incision was then closed with wound clips.
Animals were anaesthetized with ketamine and xylazine administered intraperitoneally. A mid-line incision 1-2 cm was made in the abdominal cavity and the portal vein was detached near the liver. To prevent bleeding, the portal vein was ligated temporarily as the catheter was inserted. The cathether (3.5 Fr polyurethane tube, Access™ technologies Inc.) was inserted immediately and fixed by a purse-string suture on the portal vein. The time to reperfusion was about 1 min after intercepted blood flow. This method for insertion of catheter can avoid the occlusion of the vessel. In addition, a catheter with trumpet-shaped opening was used to prevent the catheter from slipping out of the vessel with minimizing the effect of blood flow. Another end of the catheter was passed subcutaneously to the dorsal back of the neck and the laparotomy was closed in two layers, with a 4/0 silk blade to the muscle, and a surgical clip to close the skin.
Male Sprague-Dawley rats instrumented with jugular vein catheter and portal vein catheter were separated into groups of 4. The test compound was administered by oral gavage at dose of 30 mg/kg in a vehicle consisting of Tween (specifically Tween 80), Peceol, PEG400 (at a ratio of 40:50:10) along with 0.2% tocopherol and emulsified in water, with a water to oil ratio of 66:1 (the dose concentration was 6 mg/mL and the dose volume was 5 mL/kg). Whole blood (0.3 mL) was collected at both the jugular and portal vein at the following time points: 10, 20, 40 min, 1, 1.5, 2 and 4 hours post-dose. Blood samples were placed into tubes containing sodium heparin anticoagulant. Each whole blood sample was placed on ice until sample could be centrifuged at 2200×g at 5° C.±3° C. for 10 min to isolate plasma.
The amount of the various metabolites and parent compound present in the plasma samples were then analyzed by LC/MS/MS using an Agilent 6410 Triple Quadrupole with an ESI interface. The column used was a Phenomenex Gemini C6 Phenyl 110A 50×4.6 mm, 1.8 μM. The mobile phase used was water and methanol, each containing 0.1% formic acid. Data was further analyzed by WinNolin Software. For a given test compound, the following compounds were quantitated from the collected plasma samples: 1) test compound, 2) niacin linker, 3) linker-EPA, 4) niacin and 5) nicotinuric acid.
In order to quantitate each of these compounds in plasma, standard curves in blank plasma were generated using the appropriate internal standard (the final concentration range used were 8333 ng/mL, 2083 ng/mL, 521 ng/mL, 130.2 ng/mL, 32.5 ng/mL, 8.1 ng/mL, 2.0 ng/mL and 0.5 ng/mL). […]

[3] = male, Sprague-Dawley, in vivo, po, 30 mg/kg
[4] = male, Sprague-Dawley, in vivo, po, 30 mg/kg, Peripheral AUClast, parent compound
[5] = male, Sprague-Dawley, in vivo, po, 30 mg/kg, Peripheral Cmax, parent compound
[6] = male, Sprague-Dawley, in vivo, po, 30 mg/kg, Portal AUClast, parent compound
[7] = male, Sprague-Dawley, in vivo, po, 30 mg/kg, Portal Cmax, parent compound

Compound | Amount of Analyte: Niacin-linker Metabolite ([1]; rat, in vivo, po, 100 mg/kg) | ratio of Portal AUClast of Parent compound to Portal AUClast of Niacin-linker metabolite [2, 3] | AUC(0-t) [2, 4] | Cmax [2, 5] | AUC(0-t) [2, 6] | Cmax [2, 7] | also measured
CC/C=C\C/C=C\C/C=C\C/C=C\C/C=C\C/C=C\CCC(=O)NCCNC(=O)c1cccnc1 [Compound I-7, N-(2-(4Z,7Z,10Z,13Z,16Z,19Z)-docosa-4,7,10,13,16,19-hexaenamidoethyl)nicotinamide, reference compound] | – | – | – | – | – | – | concentration at 4 h [1]: 6.7 ng/g; Cmax ([2]; male, Sprague-Dawley, jugular vein plasma, po, 30 mg/kg, 30 mg/kg oral gavage, jugular vein plasma, read-out: Peripheral Cmax, parent compound): 238 ng/mL; AUC(0-t) ([2]; male, Sprague-Dawley, jugular vein plasma, po, 30 mg/kg, 30 mg/kg oral gavage, jugular vein plasma, t=10 min to 4 hrs, read-out: Peripheral AUClast, parent compound): 353 ng·h/mL; Cmax ([2]; male, Sprague-Dawley, portal vein plasma, po, 30 mg/kg, 30 mg/kg oral gavage, portal vein plasma, read-out: Portal Cmax, parent compound): 1850 ng/mL; AUC(0-t) ([2]; male, Sprague-Dawley, portal vein plasma, po, 30 mg/kg, 30 mg/kg oral gavage, portal vein plasma, t=10 min to 4 hrs, read-out: Portal AUClast, parent compound): 1460 ng·h/mL; portal concentration of the parent compound compared to compounds I-15 and I-24 ([2]; 30 mg/kg oral gavage): lower
CC/C=C\C/C=C\C/C=C\C/C=C\C/C=C\CCCC(=O)NCCNC(=O)c1cccnc1 [Compound I-8, N-(2-(5Z,8Z,11Z,14Z,17Z)-eicosa-5,8,11,14,17-pentaenamidoethyl)nicotinamide, reference compound] | 2351 nanograms of analyte per gram of tissue homogenate | 0.06 | 81 ng·h/mL | 78 ng/mL | 662 ng·h/mL | 756 ng/mL | Amount of Analyte: Nicotinuric Acid ([1]; rat, in vivo, po, 100 mg/kg): 785 nanograms of analyte per gram of tissue homogenate
CC/C=C\C/C=C\C/C=C\C/C=C\C/C=C\CCCC(=O)N1CCN(C(=O)c2cccnc2)CC1 [Compound I-13, (5Z,8Z,11Z,14Z,17Z)-1-(4-nicotinoylpiperazin-1-yl)icosa-5,8,11,14,17-pentaen-1-one] | 2023 nanograms of analyte per gram of tissue homogenate | 0.83 | 142 ng·h/mL | 80 ng/mL | 3560 ng·h/mL | 6070 ng/mL | Amount of Analyte: Linker-Fatty Acid Metabolite ([1]; rat, in vivo, po, 100 mg/kg): 15782 nanograms of analyte per gram of tissue homogenate; Amount of Analyte: Nicotinuric Acid ([1]; rat, in vivo, po, 100 mg/kg): 15.1 nanograms of analyte per gram of tissue homogenate
CC/C=C\C/C=C\C/C=C\C/C=C\C/C=C\CCCC(=O)N(C)CCNC(=O)c1cccnc1 [Compound I-15, N-(2-((5Z,8Z,11Z,14Z,17Z)—N-methylicosa-5,8,11,14,17-pentaenamido)ethyl)nicotinamide] | – | – | 767 ng·h/mL | 360 ng/mL | 5060 ng·h/mL | 4520 ng/mL | concentration at 4 h [1]: 459 ng/g
CC/C=C\C/C=C\C/C=C\C/C=C\C/C=C\CCCC(=O)N[C@H]1CCN(C(=O)c2cccnc2)C1 [Compound I-23, (5Z,8Z,11Z,14Z,17Z)—N—((S)-1-nicotinoylpyrrolidin-3-yl)icosa-5,8,11,14,17-pentaenamide] | 2290 nanograms of analyte per gram of tissue homogenate | 0.17 | 60 ng·h/mL | 68 ng/mL | 1440 ng·h/mL | 2600 ng/mL | –
CC/C=C\C/C=C\C/C=C\C/C=C\C/C=C\CCCC(=O)N1CC[C@H](NC(=O)c2cccnc2)C1 [Compound I-24, N—((S)-1-((5Z,8Z,11Z,14Z,17Z)-icosa-5,8,11,14,17-pentaenoyl)pyrrolidin-3-yl)nicotinamide] | 2826 nanograms of analyte per gram of tissue homogenate | 41 | 964 ng·h/mL | 565 ng/mL | 6640 ng·h/mL | 5320 ng/mL | Amount of Analyte: Linker-Fatty Acid Metabolite ([1]; rat, in vivo, po, 100 mg/kg): 77.2 nanograms of analyte per gram of tissue homogenate; amount of intact test compound present in the liver compared to other compounds of Table 9 ([1]; rat, in vivo, po, 100 mg/kg): significantly larger
CC/C=C\C/C=C\C/C=C\C/C=C\C/C=C\CCCC(=O)N[C@H]1CC[C@H](CNC(=O)c2cccnc2)CC1 [Compound I-41, N-(((1R,4R)-4-((5Z,8Z,11Z,14Z,17Z)-icosa-5,8,11,14,17-pentaenamido)cyclohexyl)methyl)nicotinamide] | – | – | – | – | – | – | Peripheral AUClast, parent compound ([2]; in vivo, po, 30 mg/kg): 218 ng·h/mL; Portal AUClast, parent compound ([2]; in vivo, po, 30 mg/kg): 2,507 hr*ng/mL; ratio of Portal AUClast of Parent compound to Portal AUClast of Niacin-linker metabolite ([2]; in vivo, po, 30 mg/kg): 1.3
